# Data published in patent US9096624B2 (OSI Pharmaceuticals, LLC, priority 2009, dated 2015).
# Where a name gives a salt, the structure may show the parent alone.
# Molecular target: FAK (Homo sapiens, UniProt Q05397)
# Assay: biochemical
# Sequence of FAK (Q05397 whole entry): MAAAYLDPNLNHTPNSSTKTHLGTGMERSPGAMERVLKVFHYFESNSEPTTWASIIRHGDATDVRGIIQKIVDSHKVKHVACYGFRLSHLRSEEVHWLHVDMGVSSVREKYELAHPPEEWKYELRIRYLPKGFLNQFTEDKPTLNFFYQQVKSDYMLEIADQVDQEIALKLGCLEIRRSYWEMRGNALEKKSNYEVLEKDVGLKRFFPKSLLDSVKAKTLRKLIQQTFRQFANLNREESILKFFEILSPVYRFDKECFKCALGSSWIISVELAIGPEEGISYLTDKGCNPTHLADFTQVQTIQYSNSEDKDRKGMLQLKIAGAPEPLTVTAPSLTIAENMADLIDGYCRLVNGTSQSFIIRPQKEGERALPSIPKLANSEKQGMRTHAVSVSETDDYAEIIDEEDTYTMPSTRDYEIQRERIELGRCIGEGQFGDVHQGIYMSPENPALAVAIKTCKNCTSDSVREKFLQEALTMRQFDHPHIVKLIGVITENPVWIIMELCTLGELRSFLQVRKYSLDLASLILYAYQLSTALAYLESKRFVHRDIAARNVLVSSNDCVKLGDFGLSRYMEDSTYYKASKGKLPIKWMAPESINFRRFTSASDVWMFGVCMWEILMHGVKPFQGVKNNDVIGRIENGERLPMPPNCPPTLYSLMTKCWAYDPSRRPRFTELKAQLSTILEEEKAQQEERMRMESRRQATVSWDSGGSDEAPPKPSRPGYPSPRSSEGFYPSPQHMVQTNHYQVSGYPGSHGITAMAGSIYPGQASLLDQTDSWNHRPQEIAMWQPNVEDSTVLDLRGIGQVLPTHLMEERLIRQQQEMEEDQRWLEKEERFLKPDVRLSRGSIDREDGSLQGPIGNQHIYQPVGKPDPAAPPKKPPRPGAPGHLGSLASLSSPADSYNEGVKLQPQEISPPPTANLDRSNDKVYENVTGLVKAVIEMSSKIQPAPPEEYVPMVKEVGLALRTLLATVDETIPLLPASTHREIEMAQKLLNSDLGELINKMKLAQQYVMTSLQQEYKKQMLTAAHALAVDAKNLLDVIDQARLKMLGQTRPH
row,SMILES,IC50
1,"CCOP(=O)(Cc1ccc(Nc2ncc(C(F)(F)F)c(Nc3cccc4c3C(=O)N(C)C4C)n2)cc1)OCC (stereo not shown) [Example 157, Diethyl [4-({4-[(1,2-dimethyl-3-oxo-2,3-dihydro-1H-isoindol-4-yl)amino]-5-(trifluoromethyl)pyrimidin-2-yl}amino)benzyl]phosphonate]",< 1 µM
2,"CCOC(c1ccc(Nc2ncc(C(F)(F)F)c(Nc3ccccc3C(=O)NC)n2)cc1)P(=O)(OCC)OCC (stereo not shown) [Example 159, Diethyl [ethoxy(4-{[4-{[2-(methylcarbamoyl)phenyl]amino}-5-(trifluoromethyl)pyrimidin-2-yl]amino}phenyl)methyl]phosphonate]",< 1 µM
3,"CCOP(=O)(OCC)C(OC)c1ccc(Nc2ncc(C(F)(F)F)c(Nc3ccccc3C(=O)NC)n2)cc1 (stereo not shown) [Example 160, Diethyl [methoxy(4-{[4-{[2-(methylcarbamoyl)phenyl]amino}-5-(trifluoromethyl)pyrimidin-2-yl]amino}phenyl)methyl]phosphonate]",< 1 µM
4,"CCOP(=O)(Cc1ccc(Nc2ncc(C(F)(F)F)c(Nc3ccc(C#N)c4c3C(=O)N(C)C4)n2)cc1)OCC [Example 161, Diethyl [4-({4-[(7-cyano-2-methyl-3-oxo-2,3-dihydro-1H-isoindol-4-yl)amino]-5-(trifluoromethyl)pyrimidin-2-yl}amino)benzyl]phosphonate]",< 1 µM
5,"CCOP(=O)(Cc1ccc(Nc2ncc(C(F)(F)F)c(Nc3ccc(C#N)c4c3C(=O)N(C)C4)n2)c(OC)c1)OCC [Example 162, Diethyl [4-({4-[(7-cyano-2-methyl-3-oxo-2,3-dihydro-1H-isoindol-4-yl)amino]-5-(trifluoromethyl)pyrimidin-2-yl}amino)-3-methoxybenzyl]phosphonate]",< 1 µM
6,"CCOP(=O)(Cc1ccc(Nc2ncc(C(F)(F)F)c(Nc3ccc(-c4cnn(CCOC)c4)cc3C(=O)NC)n2)cc1)OCC [Example 163, Diethyl (4-{[4-({4-[1-(2-methoxyethyl)-1H-pyrazol-4-yl]-2-(methylcarbamoyl)phenyl}amino)-5-(trifluoromethyl)pyrimidin-2-yl]amino}benzyl) phosphonate]",< 1 µM
7,"CCOP(=O)(Cc1ccc(Nc2ncc(C(F)(F)F)c(Nc3ccc([C@H]4CC[C@H](OCC)CC4)c4c3C(=O)N(C)C4)n2)c(OC)c1)OCC [Example 170, Diethyl (4-{[4-{[7-(trans-4-ethoxycyclohexyl)-2-methyl-3-oxo-2,3-dihydro-1H-isoindol-4-yl]amino}-5-(trifluoromethyl)pyrimidin-2-yl]amino}-3-methoxybenzyl)phosphonate]",< 1 µM
8,"CCOP(=O)(Cc1ccc(Nc2ncc(C(F)(F)F)c(Nc3ccc([C@H]4CC[C@H](O)CC4)cc3C(=O)N(C)C)n2)cc1)OCC [Example 173, Diethyl (4-{[4-{[2-(dimethylcarbamoyl)-4-(trans-4-hydroxycyclohexyl)phenyl]amino}-5-(trifluoromethyl)pyrimidin-2-yl]amino}benzyl)phosphonate]",< 1 µM
9,"CCOP(=O)(Cc1ccc(Nc2ncc(C(F)(F)F)c(Nc3ccccc3C(=O)N3CCN(C)CC3)n2)cc1)OCC [Example 177, Diethyl (4-{[4-({2-[(4-methylpiperazin-1-yl)carbonyl]phenyl}amino)-5-(trifluoromethyl)pyrimidin-2-yl]amino}benzyl)phosphonate]",< 1 µM
10,"CCOP(=O)(Cc1ccc(Nc2ncc(C(F)(F)F)c(Nc3ccccc3C(=O)N3CCCC3)n2)c(OC)c1)OCC [Example 178, Diethyl (3-methoxy-4-{[4-{[2-(pyrrolidin-1-ylcarbonyl)phenyl]amino}-5-(trifluoromethyl)pyrimidin-2-yl]amino}benzyl)phosphonate]",< 1 µM
11,"CCOP(=O)(Cc1ccc(Nc2ncc(C(F)(F)F)c(Nc3ccccc3C(=O)N3CCN(C)CC3)n2)c(OC)c1)OCC [Example 179, Diethyl (3-methoxy-4-{[4-({2-[(4-methylpiperazin-1-yl)carbonyl]phenyl}amino)-5-(trifluoromethyl)pyrimidin-2-yl]amino}benzyl)phosphonate]",< 1 µM
12,"CCOP(=O)(Cc1ccc(Nc2ncc(C(F)(F)F)c(Nc3ccc(-c4cnn(CCN(CC)CC)c4)cc3C(=O)NC)n2)cc1)OCC [Example 180, Diethyl (4-{[4-{[4-{1-[2-(diethylamino)ethyl]-1H-pyrazol-4-yl}-2-(methylcarbamoyl)phenyl]amino}-5-(trifluoromethyl)pyrimidin-2-yl]amino}benzyl)phosphonate]",< 1 µM
13,"CCOP(=O)(Cc1ccc(Nc2ncc(C(F)(F)F)c(Nc3ccc(-c4nn[nH]n4)c4c3C(=O)N(C)C4)n2)cc1)OCC [Example 181, Diethyl (4-{[4-{[2-methyl-3-oxo-7-(2H-tetrazol-5-yl)-2,3-dihydro-1H-isoindol-4-yl]amino}-5-(trifluoromethyl)pyrimidin-2-yl]amino}benzyl)phosphonate]",< 1 µM
14,"CCOP(=O)(Cc1ccc(Nc2ncc(C(F)(F)F)c(Nc3cccc4c3C(=O)N(O)C4)n2)c(OC)c1)OCC [Example 186, Diethyl [4-({4-[(2-hydroxy-3-oxo-2,3-dihydro-1H-isoindol-4-yl)amino]-5-(trifluoromethyl)pyrimidin-2-yl}amino)-3-methoxybenzyl]phosphonate trifluoroacetate]",< 1 µM
15,"CCOP(=O)(Cc1ccc(Nc2ncc(C(F)(F)F)c(Nc3cccc4c3C(=O)N(OC)C4)n2)c(OC)c1)OCC [Example 187, Diethyl [3-methoxy-4-({4-[(2-methoxy-3-oxo-2,3-dihydro-1H-isoindol-4-yl)amino]-5-(trifluoromethyl)pyrimidin-2-yl}amino)benzyl]phosphonate trifluoroacetate]",< 1 µM
16,"CCOP(C)(=O)Cc1ccc(Nc2ncc(C(F)(F)F)c(Nc3ccc([C@H]4CC[C@@](C)(O)CC4)c4c3C(=O)N(C)C4)n2)c(OC)c1 (stereo partly drawn) [Example 200, Ethyl (4-{[4-{[7-(cis-4-hydroxy-4-methylcyclohexyl)-2-methyl-3-oxo-2,3-dihydro-1H-isoindol-4-yl]amino}-5-(trifluoromethyl)pyrimidin-2-yl]amino}-3-methoxybenzyl)methylphosphinate]",< 1 µM
17,"CCOP(=O)(Cc1ccc(Nc2ncc(C(F)(F)F)c(Nc3ccc(OC)c4c3C(=O)N(C)C4)n2)cc1)OCC [Example 205, Diethyl [4-({4-[(7-methoxy-2-methyl-3-oxo-2,3-dihydro-1H-isoindol-4-yl)amino]-5-(trifluoromethyl)pyrimidin-2-yl}amino)benzyl]phosphonate]",< 1 µM
18,"CCOc1ccc(Nc2nc(Nc3ccc(CP(=O)(OCC)OCC)cc3OC)ncc2C(F)(F)F)c2c1CN(C)C2=O [Example 210, Diethyl [4-({4-[(7-ethoxy-2-methyl-3-oxo-2,3-dihydro-1H-isoindol-4-yl)amino]-5-(trifluoromethyl)pyrimidin-2-yl}amino)-3-methoxybenzyl]phosphonate]",< 1 µM
19,"CCOP(=O)(Cc1ccc(Nc2ncc(C(F)(F)F)c(Nc3ccc(OC(C)C)c4c3C(=O)N(C)C4)n2)c(OC)c1)OCC [Example 211, Diethyl (3-methoxy-4-{[4-{[2-methyl-3-oxo-7-(propan-2-yloxy)-2,3-dihydro-1H-isoindol-4-yl]amino}-5-(trifluoromethyl)pyrimidin-2-yl]amino}benzyl)phosphonate]",< 1 µM
